Broadly, the MIC is the lowest concentration that inhibits growth of the organism.

One assay relates to Streptococcus pyogenes. In words: Antimicrobial activity against Streptococcus pyogenes ATCC 19615 assessed as diameter of growth inhibition zone at 1 mg/ml after 24 hr by agar diffusion method. It is filed as functional. The note with it: ATCC 19615, 24 h, read-out: DIZ. On the technique in general: Agar diffusion results depend on both activity and mobility in agar.
In assay [1] the test system is Pseudomonas savastanoi pv. phaseolicola. Nature of the assay: Antimicrobial activity against Pseudomonas syringae pv. phaseolicola GSPB 2828 assessed as growth inhibition after 24 to 48 hr by two-fold serial dilution method. It is filed as functional.
In another assay the test system is Pseudomonas fluorescens. In words: Antimicrobial activity against Pseudomonas fluorescens S 97 assessed as diameter of growth inhibition zone at 1 mg/ml after 24 hr by agar diffusion method. It is filed as functional. The note with it: S 97, 24 h, read-out: DIZ.
The test system of assay [2] is Staphylococcus aureus. In words: Antimicrobial activity against Staphylococcus aureus ATCC 25923 assessed as diameter of growth inhibition zone at 1 mg/ml after 24 hr by agar diffusion method. The note with it: ATCC 25923, 24 h, read-out: DIZ. The format is functional.
Assay [3] deals with Fusarium oxysporum. In words: Antimicrobial activity against Fusarium oxysporum assessed as growth inhibition after 24 to 48 hr by two-fold serial dilution method. It is filed as functional.
Assay [4] deals with Staphylococcus aureus. Nature of the assay: Antimicrobial activity against Staphylococcus aureus ATCC 25923 assessed as growth inhibition after 24 to 48 hr by two-fold serial dilution method relative to chloramphenicol. The format is functional.
Assay [5] relates to Staphylococcus aureus. In words: Antimicrobial activity against Staphylococcus aureus ATCC 25923 assessed as growth inhibition after 24 to 48 hr by two-fold serial dilution method relative to cephalothin. It is filed as functional.
A further assay concerns Aspergillus fumigatus. Nature of the assay: Antimicrobial activity against Aspergillus fumigatus assessed as diameter of growth inhibition zone at 1 mg/ml by agar diffusion method. The note with it: read-out: DIZ.
For assay [6], the system named is Pseudomonas savastanoi pv. phaseolicola. Nature of the assay: Antimicrobial activity against Pseudomonas syringae pv. phaseolicola GSPB 2828 assessed as diameter of growth inhibition zone at 1 mg/ml after 24 hr by agar diffusion method. The note with it: GSPB 2828, 24 h, read-out: DIZ. The format is functional.
Assay [7] relates to Fusarium oxysporum. Nature of the assay: Antimicrobial activity against Fusarium oxysporum assessed as diameter of growth inhibition zone at 1 mg/ml […] by agar diffusion method. The note with it: read-out: DIZ. The format is functional.
In assay [8] the test system is Staphylococcus aureus. In words: Antimicrobial activity against Staphylococcus aureus ATCC 25923 assessed as growth inhibition after 24 to 48 hr by two-fold serial dilution method. The format is functional.

In brackets after ≈: the same amount, converted by molar mass.

Regarding `Cc1ccc(S(=O)(=O)Oc2ccc(-c3nc4ccccc4c(=O)n3C3=NNC(=O)C3/N=N/c3ccccc3)cc2)cc1` (stereo unspecified), the zone of inhibition at 1000 µg/mL in the assay on Streptococcus pyogenes stood at 14 mm; with Pseudomonas fluorescens, 16 mm; in the assay on Staphylococcus aureus [2] it was 32 mm; with Aspergillus fumigatus, 16 mm; in [6], 20 mm; with Fusarium oxysporum [7] it was 31 mm. Besides, the figures for the MIC (in assay [1]; with Fusarium oxysporum [3]; with Staphylococcus aureus [8]) were 50 µg/mL (≈ 86.4 µM), 12.5 µg/mL (≈ 21.6 µM) and 12.5 µg/mL (≈ 21.6 µM), respectively. In addition, the “growth inhibition (GI)” value in the assay on Staphylococcus aureus [4] is recorded as 25%; in the assay on Staphylococcus aureus [5] it was 50%.

Source of the values: ChEMBL document CHEMBL3045082, “Novel quinazolinone derivatives: synthesis and antimicrobial activity” (2013).
